Reference: ChEMBL document CHEMBL1127379, “Three-dimensional molecular shape analysis-quantitative structure-activity relationship of a series of cholecystokinin-A receptor antagonists” (J Med Chem, 1994)

These compounds were tested against T1, Cholecystokinin receptor type A (Rattus norvegicus, UniProt P30551) (assay: Binding affinity against cholecystokinin type A receptor of rat pancreas).
T1 sequence (P30551 whole entry): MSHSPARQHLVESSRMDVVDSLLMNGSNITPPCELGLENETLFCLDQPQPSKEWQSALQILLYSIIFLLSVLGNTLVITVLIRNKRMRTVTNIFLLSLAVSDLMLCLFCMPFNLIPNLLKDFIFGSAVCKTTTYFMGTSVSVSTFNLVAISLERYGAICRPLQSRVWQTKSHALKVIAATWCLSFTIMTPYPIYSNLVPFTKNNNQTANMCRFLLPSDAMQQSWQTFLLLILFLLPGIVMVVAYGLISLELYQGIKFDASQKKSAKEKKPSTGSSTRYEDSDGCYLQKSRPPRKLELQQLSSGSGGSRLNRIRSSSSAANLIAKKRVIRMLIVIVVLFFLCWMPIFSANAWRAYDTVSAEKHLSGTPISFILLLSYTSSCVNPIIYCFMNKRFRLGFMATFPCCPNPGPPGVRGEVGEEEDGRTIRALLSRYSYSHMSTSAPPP

| SMILES | IC50 |
| --- | --- |
| O=C(NC1N=C(c2ccccc2)c2ccccc2NC1=O)c1cc2ccccc2[nH]1 (stereo not drawn) | 4.57 nM |
| O=C(NC1N=C(c2ccccc2)c2ccccc2NC1=O)c1ccc(O)cc1 (stereo not drawn) | 1780 nM |
| CC1C(C(=O)NC2N=C(c3ccccc3F)c3ccccc3NC2=O)=Cc2ccccc21 (stereo not drawn) | 21.9 nM |
| O=C(NC1N=C(c2ccccc2F)c2ccccc2NC1=O)c1cc2cc(Cl)ccc2[nH]1 (stereo not drawn) | 100 nM |
| CN1C(=O)C(NC(=O)c2ccc(C#N)cc2)N=C(c2ccccc2F)c2ccccc21 (stereo not drawn) | 42.7 nM |
| CN1C(=O)C(NC(=O)c2cccc(Br)c2)N=C(c2ccccc2F)c2ccccc21 (stereo not drawn) | 3.47 nM |
| CN1C(=O)C(NC(=O)c2ccc(Br)cc2)N=C(c2ccccc2F)c2ccccc21 (stereo not drawn) | 0.794 nM |
| CN1C(=O)C(NC(=O)c2ccc(I)cc2)N=C(c2ccccc2F)c2ccccc21 (stereo not drawn) | 0.794 nM |
| CN1C(=O)[C@@H](NC(=O)c2ccc(Cl)cc2)N=C(c2ccccc2F)c2ccccc21 | 2.88 nM |
| CN1C(=O)[C@@H](NC(=O)c2ccc(Br)cc2)N=C(c2ccccc2)c2ccccc21 | 2.51 nM |
| CN1C(=O)C(NC(=O)c2ccc(C(F)(F)F)cc2)N=C(c2ccccc2)c2ccccc21 (stereo not drawn) | 1.29 nM |
| CN1C(=O)C(NC(=O)c2ccccc2I)N=C(c2ccccc2F)c2ccccc21 (stereo not drawn) | 794 nM |
| O=C(CNc1ccccc1)NC1N=C(c2ccccc2F)c2ccccc2NC1=O (stereo not drawn) | 89.1 nM |
